Measurements taken from patent US11378572B2, “Therapeutic agent for immune cell migration-caused disease and method for screening same” (ZYMEDI CO., LTD., priority 2017, dated 2022).

Tests used:
RAW 264.7 cells = assay: Transwell migration assay of monocytes/macrophages; type: cell-based
Description: Among several extracellular matrix (ECM), it was examined which ECM promotes the migration and infiltration of immune cells, typically monocytes/macrophages. A transwell migration assay was performed using collagen (Col), fibronectin (FN) and laminin (LN) as extracellular matrices, and detailed methods were as follows. Transwells (Corning, #3421-5 mm) were coated with gelatin (0.5 mg/ml) and RAW 264.7 cells (1×10^5 cells/well) were seeded into the top chambers. Serum free DMEM (500 μl) containing 10 μg/ml of laminin (laminin mixture, Biolamina), fibronectin or collagen, respectively, was placed in the bottom chambers. After 24 hours, cells were fixed with 70% methanol for 30 minutes and stained with 50% hematoxylin for 30 minutes. After removing non-migrating cells from the top of the membrane with a cotton swab, the membrane was taken and mounted on the slide. Migrating cells on the underside of the membrane were observed and quantified under a high magnification microscope.
Effect of laminin subtypes on the immune cell migration and infiltration was evaluated. A transwell migration assay was performed in the same manner as in Example 1 using LN111, LN211, LN221, LN411, LN421, LN511, and LN521 as various laminin subtype proteins (purchased from Biolamina). Specific sequences of laminin subtypes are referred to α4 chain of SEQ ID NO:4, α2 chain of SEQ ID NO: 10, α5 chain of SEQ ID NO: 11, β2 chain of SEQ ID NO:6, β1 chain of SEQ ID NO: 12, γ1 chain of SEQ ID NO: 8. according to the chain forming each laminin subtype,
For each of the transformed macrophages, a transwell migration assay was performed in the same manner as in Example 1 using 1 μg/ml of laminin 421.
Thus identified agents as inhibiting the translocation of KRS to the plasma membrane was added to the LN421-treated macrophages to perform a transwell migration assay. […] Migrating cells on the underside of the membrane were observed and quantified under a high magnification microscope. […]

KRS = molecular target: T1, KRS (Mus musculus, UniProt Q99MN1); assay: KRS level in plasma membrane/cytosol fractions by western blot (KRS translocation to the plasma membrane); type: cell-based; conditions: RAW 264.7 cells, LN421 l g/ml, 0, 12, 24 hour
T1 construct: KRS, which is expressed in monocytes/macrophages and usually present in the cytoplasmic domain, translocates to the plasma membrane by LN421 treatment; endogenous in cells; host or cells: RAW 264.7
Description: After dispensing RAW 264.7 cells (2×10^6 cells) in 100 mm dish and incubating for 18 hours, cells were treated with LN421 l g/ml in serum free DMEM media and harvested at 0 hour, 12 hour, 24 hour. Proteins of RAW 264.7 cells were separated into the cytosol and membrane fractions using ProteoExtract Subcellular Proteome Extraction Kit (Calbiotech, cat #539790). Obtained proteins were electrophoresed and transferred to PVDF membrane (Milipore) and blocked with 3% skim milk. KRS was then detected by western blot. Specifically, KRS polyclonal antibody (rabbit, Neomics, Co. Ltd. #NMS-01-0005) was added and reacted for 1 hour. Unbound antibody was removed and the membrane was added and reacted with anti-rabbit secondary antibody (ThermoFisher Scientific, #31460). After reacting with the secondary antibody, films were exposed in the dark room using ECL reagent as a substrate. […]
First, in order to determine whether various KRS inhibitor candidates could exert inhibitory effect on the KRS translocation to the plasma membrane, RAW 264.7 cells (2×10^6 cells) were dispensed in 100 mm dishes and incubated for 18 hours, followed by treatment with laminin 421 1 μg/ml in serum free DMEM, and 100 nM of each of various KRS inhibitor candidates, and cells were further incubated for 12 hours. […] Afterwards, KRS was detected by western blot, and the specific method were as described in Example 3. […]

PAH model = assay: Monocrotaline PAH model, anti-KRS antibody; type: in vivo, SD rats
Description: To induce PAH in 7-week-old SD rats (Orient bio), 60 mpk of MCT (monocrotaline) was subcutaneously injected. Then rats were divided into 4 groups (5 animals in each group), and administered with either of 1 mpk of mock human IgG (Thermo Fisher Scientific, negative control), 1 mpk or 10 mpk of anti-KRS antibody (N3 antibody), 25 mpk of sildenafil (positive control) for 3 weeks. All antibodies were intravenously injected twice a week and sildenafil was orally administered everyday.
Three weeks later, rats were anesthetized with isoflurane, and blood flow and pressure were measured using an MPVS cardiovascular pressure and volume system (model name: MPVS Ultra, manufactured by Millar Instruments). Right ventricular systolic pressure (RVESP) and diastolic pressure, left ventricular systolic pressure and diastolic pressure were measured using a dedicated catheter (Mikro-Tip rat pressure catheter, manufactured by Millar Instruments). Cardiac output was measured using a perivascular blood flow probe (Transonic® Flowprobes, manufactured by […]), and experimental techniques were performed in the same manner as described in the literature: Pacher P, Nagayama T, Mukhopadhyay P, Batkai S, Kass D A. Measurement of cardiac function using pressure-volume conductance catheter technique in mice and rats. Nat Protoc 2008, 3(9):1422-34.
Collected lungs were fixed in PFA (paraformaldehyde) according to a conventional procedure, and then embedded in paraffin through water washing, dehydration, and tissue clearing processes. Lung tissue paraffin blocks of rats were cut to a thickness of […] and slides were prepared. Thereafter, staining was performed as follows. First, slides were treated with xylene 3 times for 5 minutes, followed by treatments with 100% ethanol, 95% ethanol, 90% ethanol, 70% ethanol, DW for 2 minutes in this order and washed with PBS for 5 minutes. After treatment with 0.3% H2O2, slides were washed twice with PBS for 5 minutes. After soaking in 0.01M citrate buffer and heating, slides were washed with PBS-T (0.03% tween 20). After 30 minutes blocking at room temperature (2% BSA & 2% goat serum in PBS), tissues were stained with anti-CD68 antibody (1:200, ED1 clone, Abcam) overnight at 4° C. After washing three times with PBS-T for 5 minutes, tissues were treated with polymer-HRP anti-mouse envision kit (DAKO) for 1 hour at 4° C. After washing three times with PBS-T, color was developed by treatment with DAB substrate buffer and DAB chromogen 20. Thus stained tissues were treated with Mayer's hematoxylin (Sigma) for 1 minute, and then treated twice for 2 minutes in the order of 70% ethanol, 90% ethanol, 95% ethanol, and 100% ethanol. Finally, xylene was treated three times for 5 minutes and observed with an optical microscope.

[1] = MCT + sildenafil 25 mpk oral everyday, 3 weeks (n = 5)

T1 sequence (Q99MN1 whole entry, the tested form may be a part): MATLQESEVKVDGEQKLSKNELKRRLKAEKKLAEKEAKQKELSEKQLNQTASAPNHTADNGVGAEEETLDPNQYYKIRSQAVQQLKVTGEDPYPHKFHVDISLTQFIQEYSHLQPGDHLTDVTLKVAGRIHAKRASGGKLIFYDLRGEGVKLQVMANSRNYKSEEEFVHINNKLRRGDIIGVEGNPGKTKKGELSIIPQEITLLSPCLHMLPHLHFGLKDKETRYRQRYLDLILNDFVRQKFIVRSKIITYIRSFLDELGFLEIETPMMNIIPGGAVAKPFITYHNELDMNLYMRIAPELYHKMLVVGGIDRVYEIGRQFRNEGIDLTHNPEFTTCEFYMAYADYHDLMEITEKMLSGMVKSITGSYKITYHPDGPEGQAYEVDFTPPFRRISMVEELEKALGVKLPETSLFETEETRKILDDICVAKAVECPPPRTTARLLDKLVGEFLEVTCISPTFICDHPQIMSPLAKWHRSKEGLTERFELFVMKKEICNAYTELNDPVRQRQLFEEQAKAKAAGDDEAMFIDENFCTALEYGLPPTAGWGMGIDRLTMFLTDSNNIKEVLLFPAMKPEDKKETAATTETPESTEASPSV

For laminin [reference compound], the “migration of monocytes/macrophages among extracellular matrices” value (RAW 264.7 cells; 10 μg/ml in bottom chamber, 24 hours, versus collagen, fibronectin) was “most strongly promoted”.
In the case of “LN421: laminin subtype α4β2γ1, purchased from Biolamina [reference compound]”, the “level of KRS detection in the plasma membrane fractions” value (KRS) is reported as “increased” and the “migration of monocytes/macrophages among laminin subtypes” value (RAW 264.7 cells; LN111, LN211, LN221, LN411, LN421, LN511, LN521 compared) is reported as “specifically reacted”.
For `CCCc1nn(C)c2c(=O)[nH]c(-c3cc(S(=O)(=O)N4CCN(C)CC4)ccc3OCC)nc12` [sildenafil], the CO (PAH model; MCT + sildenafil 25 mpk oral everyday, 3 weeks (n = 4)) was 49.6 ± 17.7 mL/min, the LVEDP (PAH model; [1]) was 3.6 ± 2.3 mmHg and the LVESP (PAH model; [1]) was 83.2 ± 4.7 mmHg. The RVEDP (PAH model; [1]) was 2.6 ± 1.3 mmHg, the RVESP (PAH model; [1]) was 48.4 ± 9.6 mmHg and the “body weight, absolute change” value (PAH model; MCT + sildenafil (n = 5)) was 104.1 ± 26.4 g. For the same molecule, the “body weight, relative change” value (PAH model; MCT + sildenafil (n = 5)) was 49.8 ± 10.5% and the “findings of D-shaped left ventricle (echocardiography)” value (PAH model; number of animals with finding) was “three mice”.
